The term vapor or sublimation pressure denotes the pressure of vapour in equilibrium with the condensed phase.

The source of these data is the NIST ThermoML archive (doi:10.1021/acs.jced.8b00908).

The conditions of the data set: Liquid, Ebulliometric method (Recirculating still).

Numbers after ± are expanded uncertainties.

Regarding `C=CCO` [2-propenol], the “vapor or sublimation pressure” value (369.94 K) was found to be 101.3 ± 3.5 kPa.

As to `CCOC(C)=O` [ethyl acetate], where the note is “350.28 K”, the “vapor or sublimation pressure” value is reported as 101.3 ± 3.5 kPa. As for `CCC(=O)OC` [methyl propanoate], under “352.47 K”, the “vapor or sublimation pressure” value stood at 101.3 ± 3.5 kPa. With `ClC(Cl)Cl` [trichloromethane], the “vapor or sublimation pressure” value (334.12 K) was determined as 101.3 ± 3.5 kPa.
